From ChEMBL document CHEMBL1158926, “Norsesterterpenes from the North Adriatic Sponge Ircinia oros” (J Nat Prod, 1990)
≈ marks a conversion by molar mass, not a printed value.

Assay: Toxicity against Artemia salina
Type: organism-based
Details: in vivo, read-out: LD50 (the source's name)

**Q.** Which LC50 does the source give for `CC1=C(O)/C(=C/[C@H](C)CCC/C(C)=C/CCc2coc(Cc3ccoc3)c2)OC1=O` [IRCININ 1] here?
**A.** 2.4 µg/mL (≈ 5.85 µM)

**Q.** Which LC50 does the source give for `C/C(=C/CCC(C)CC(=O)C(O)C(C)Cl)CCCc1coc(Cc2ccoc2)c1` (centres undefined) here?
**A.** 8.6 µg/mL (≈ 20.4 µM)

**Q.** For `CC1=C(O)/C(=C/[C@H](C)CC/C=C(/C)CCCc2coc(Cc3ccoc3)c2)OC1=O` [IRCININ 2], which LC50 is on record?
**A.** 2.7 µg/mL (≈ 6.58 µM)

**Q.** For `C/C(=C\CCc1coc(Cc2ccoc2)c1)CCCC(C)CC(=O)C(O)C(C)Cl` (centres undefined), which LC50 is on record?
**A.** 8.2 µg/mL (≈ 19.5 µM)
